Consider three compounds from publication PMC11636681, “Pharmacokinetics and pharmacodynamics of antibacterial peptide NZX in Staphylococcus aureus mastitis mouse model” (Applied Microbiology and Biotechnology, 2024).

Positions of bridges follow the written chain, without caps; N, C: chain ends. Residues, ends and D or L forms follow the SMILES beside them. Some results are limits rather than exact numbers.

Assay [1] has as its system S. aureus ATCC 25923. Nature of the assay: Post antibiotic effect (PAE). The class given is cell-based, Staphylococcus aureus. Particulars: 2 h exposure at 1 × to 8 × MIC, 1 × 10^8 CFU/mL, triplicate. How it is done: (§1) PAE was performed based on the method of Zhang et al. (Zhang et al. [2014]). S. aureus E48, S. aureus ATCC 25923 and S. aureus ATCC 43300 were cultured at 37 °C in MHB medium to the log-phase. Then, the diluted cells (1 × 10^8 CFU/mL) were exposed to NZX with final concentration of 1 × , 2 × , 4 × and 8 × MIC in the 48-well plates for 2 h at 37 °C. After incubation, NZX were removed by diluting 1:1000 with MHB medium. Viable counts were determined immediately after drug reconstruction and at 1–2 h interval for at least 10 h. PAE determination was calculated as PAE (h) = T-C, where T is the time (h) that required to increase by tenfold for the drug-treated viable count from the moment of drug reconstruction and C is the time (h) required to increase by tenfold for cell density without treatment. The experiments were conducted in triplication.

For assay [2], the system named is S. aureus E48. As to the kind of experiment: Post antibiotic effect (PAE). Format: cell-based, Staphylococcus aureus. The following applies: 2 h exposure at 1 × to 8 × MIC, 1 × 10^8 CFU/mL, triplicate. How it is done:
as §1

The subject of assay [3] is S. aureus ATCC 25923. As to the kind of experiment: Cell membrane permeability, PI staining by flow cytometry. The class given is cell-based, Staphylococcus aureus. On the procedure: (§2) Flow cytometry was used for the analysis of the effects of NZX on the penetration rate of the S. aureus cell membrane (Yang et al. [2019]). The S. aureus cells in mid-log phase were adjusted to 1 × 10^8 CFU/mL and the bacteria suspensions were treated with 1 × , 2 × and 4 × MIC of NZX for 2 h at 37 °C. In addition, the cell suspensions were incubated with 2 × MIC of NZX for 0 h, 0.5 h, 1 h and 2 h, respectively. After incubation, the cells were centrifuged at 4000 rpm at 4 °C for 5 min, washed twice with sterile PBS, and pellets were resuspended in 1 mL of PBS. Next, cells were stained with 50 µg/mL propidium iodide (PI) for 30 min in the dark at room temperature, and the proportion of cells with PI positive cells to the total cells were analyzed by flow-cytometry (BD, USA). Lincomycin and ceftiofur were used as positive controls and PBS as negative control. Three replicates for each treatment were conducted.
(In general: Flow cytometry measures light scatter and fluorescence of single cells or particles in a stream.)

Assay [4] deals with S. aureus E48. The description is as above. Format: cell-based, Staphylococcus aureus. How it is done: as §2
The test system of assay [5] is S. aureus ATCC 25923. As to the kind of experiment: Mouse mastitis model, bacterial counts in mammary tissues. The following applies: 24 h after treatment; for bacteria reduction in mammary tissues: vs PC group. Format: in vivo. From the text: (§3) The 7 to 8-weeks old ICR mice (80 females, 40 males) were housed in independent ventilated cages, and feed with autoclaved laboratory food and water. Female mice in heat were put into the cage of males (females:males, 2:1) overnight and checked for vaginal plugs at the following morning to induce pregnancy. ICR-lactating mice were used at 6 to 8 days after the birth of the offspring. The mouse mastitis model was established as previously described (Li et al. [2017]). Mice were randomly divided into nine groups: NC group (uninfected group), PC group (infected but without treatment), NZX groups (25, 50, 100, 200 and 400 μg/gland, respectively), lincomycin group (100 μg/gland), and ceftiofur group (100 μg/gland). Each experimental group has six independent experiments with three mice. Specially, the pups were removed 1 h before the intramammary injection of both L4 (on the left) and R4 (on the right) abdominal mammal glands. A 100 μL of S. aureus strains (1 × 10^6 CFU/mL) was administrated to mice in PC, NZX, lincomycin and ceftiofur groups, and the same volume of sterile physiological saline was administrated to mice in NC group. Glands of 3 h post-infection were injected with sterile physiological saline, NZX, lincomycin, or ceftiofur. The mice were euthanized after the treatment for 24 h, and their mammary glands were dissected, weighed, and homogenized. The animal experiments were performed according to the Animal Care and Use Committee of the Feed Research Institute, Chinese Academy of Agricultural Sciences (Permit Number: AEC-CAAS-20090609) in accordance with the Guidelines for Animal Experimentation.
(§4) After mouse sacrifice, one part of mammary tissue was taken for bacterial count, and the other part was used for the histopathological analysis. Specifically, tissues were aseptically collected immediately from the dead mice, weighted, homogenized with sterile physiological saline (1:1, W:V). Next, the homogenates were serially diluted (ten-fold dilutions) in physiological saline, plated on MHA plate, and then cultured overnight at 37 °C. The bacterial number on each plate was counted and the results were expressed as Log10 CFU per gram of mammary tissues. In addition, mammary tissues were fixed in 4% paraformaldehyde, then embedded in paraffin, cut into 5 μm sections, and later stained by hematoxylin–eosin (H&E). The stained sections were observed under a light microscope (× 200) for pathological morphology and scoring of mammary tissues (Schmidt et al. [1992]).

For assay [6], the system named is S. aureus E48. The description is as above. The class given is in vivo. The following applies: 3 h post-infection, 24 h after treatment, vs PC group.
Source text: as §3, §4

Assay [7] has as its system S. aureus ATCC 25923. Nature of the assay: Mutant prevention concentration (MPC) on MHA plates. The following applies: 1 × 10^10 CFU/mL, 37 °C, 72 h, each concentration three times. The class given is cell-based, Staphylococcus aureus. On the procedure: (§5) Minimal Inhibitory Concentration (MIC), Minimal Bactericidal Concentration (MBC) and Mutant Prevention Concentration (MPC).
(§6) MPCs of NZX against the test S. aureus strain were determined as described by Plowgian et al., with some modification (Plowgian et al. [2019]). In brief, S. aureus cells were cultured to mid-log phase in Mueller–Hinton broth (MHB) medium. Then the suspensions were centrifuged (4000 rpm for 5 min) and the pellets were collected and diluted to a final concentration of 1 × 10^10 CFU/mL with MHB. […] All plates were incubated at 37 ^∘C for 72 h and the concentration corresponding to the plate with no bacterial growth was regarded as the provisional mutant prevention concentration (MPCpr). […] Lincomycin and ceftiofur were set as antibiotic controls, respectively. Each concentration was conducted three times.

For assay [8], the system named is S. aureus E48. The description is as above. Format: cell-based, Staphylococcus aureus. The following applies: 1 × 10^10 CFU/mL, 37 °C, 72 h, each concentration three times. On the procedure: as §5, §6
Assay [9] concerns S. aureus ATCC 43300. The assay is described as above. The following applies: 1 × 10^10 CFU/mL, 37 °C, 72 h, each concentration three times. The class given is cell-based, Staphylococcus aureus. How it is done: as §5, §6
Where [10] appears, read: 2 × MIC, range over 0, 0.5, 1 and 2 h.
Where [11] appears, read: 2 h, range over 1 × MIC, 2 × MIC and 4 × MIC.

Consider `CO/N=C(\C(=O)N[C@@H]1C(=O)N2C(C(=O)O)=C(CSC(=O)c3ccco3)CS[C@H]12)c1csc(N)n1` [Ceftiofur], for which the “mean PAE range” value was in the range of 1.40 to 2.29 h in [1] and 1.30 to 2.10 h in assay [2]. In addition, the “percentage of PI-positive cells” value is recorded as 1.35–4.31% in [3] (setting [10]), 1.55–3.42% in assay [3] (setting [11]), 2.61–23.53% in assay [4] (setting [10]) and 8.56–21.1% in assay [4] (setting [11]). Also, the “bacteria reduction in mammary tissues” value in assay [5] (100 μg/gland intramammary) was 6.99 Log10 CFU/g; in assay [6] (100 μg/gland intramammary) it was 5.70 Log10 CFU/g. The MPC in [7] was 234.24 µM; in assay [8], 5.49 µM; in assay [9] it was 7.32 µM.

With `CCC[C@@H]1C[C@@H](C(=O)N[C@@H]([C@H]2O[C@H](SC)[C@H](O)[C@@H](O)[C@H]2O)[C@@H](C)O)N(C)C1` [Lincomycin], the “mean PAE range” value was in the range of 0.94 to 1.52 h in assay [1] and 2.02 to 3.27 h in assay [2]. The “percentage of PI-positive cells” value in assay [3] (setting [11]) is given as 0.45 to 0.63%; in assay [4] (setting [10]), 0.13–2.61%; in [4] (setting [11]), 0.08 to 0.09%. The “bacteria reduction in mammary tissues” value was determined as 5.23 Log10 CFU/g in assay [5] (100 μg/gland intramammary) and 7.37 Log10 CFU/g in [6] (100 μg/gland intramammary). For the same compound, the MPC in assay [7] and in assay [8] was above 1111.04 µM each time.

With `CC[C@H](C)[C@@H]1NC(=O)[C@H](CO)NC(=O)[C@H](CCCCN)NC(=O)[C@@H]2CSSC[C@@H](C(=O)N[C@@H](Cc3ccc(O)cc3)C(=O)O)NC(=O)[C@H](CCCCN)NC(=O)[C@@H]3CSSC[C@H](NC(=O)[C@H](CCC(N)=O)NC(=O)[C@H]([C@@H](C)CC)NC(=O)[C@H](CC(=O)O)NC(=O)[C@H](CC(=O)O)NC(=O)[C@H](CCC(=O)O)NC(=O)[C@H](CO)NC(=O)[C@H](Cc4c[nH]c5ccccc45)NC(=O)[C@@H]4CCCN4C(=O)CNC(=O)[C@H](CC(N)=O)NC(=O)[C@@H](NC(=O)CNC(=O)[C@H](Cc4ccccc4)NC(=O)CN)CSSC[C@H](NC(=O)[C@H](Cc4ccc(O)cc4)NC(=O)CNC(=O)CNC(=O)[C@H](CCCCN)NC(=O)[C@H](Cc4ccc(O)cc4)NC(=O)CNC(=O)[C@H](CCCCN)NC1=O)C(=O)N[C@@H](C)C(=O)N[C@@H](CCCNC(=N)N)C(=O)NCC(=O)NCC(=O)N[C@@H](Cc1ccccc1)C(=O)N[C@@H](C(C)C)C(=O)N3)C(=O)N[C@@H](Cc1c[nH]cn1)C(=O)N[C@@H](CC(N)=O)C(=O)N[C@@H](Cc1c[nH]cn1)C(=O)N2` [NZX] (H-GFGCNGPWSEDDIQCHNHCKSIKGYKGGYCARGGFVCKCY-OH; disulfide 4-30, 15-37, 19-39; N-terminus and C-terminus assumed), the “mean PAE range” value was 1.67 to 3.34 h in assay [1] and 1.14 to 3.60 h in [2]. In addition, the “percentage of PI-positive cells” value in assay [3] (setting [10]) was 1.93 to 54.06%; in assay [3] (setting [11]), 12.9–48.0%; in assay [4] (setting [10]), 2.61 to 72.93%; in assay [4] (setting [11]), 25.6–70.3%. Also, the “bacteria reduction in mammary tissues” value in assay [5] (100 μg/gland intramammary) is recorded as 4.73 Log10 CFU/g; in assay [5] (range over 25–400 μg/gland intramammary) it was 3.35–11.09 Log10 CFU/g; in [6] (100 μg/gland intramammary), 8.34 Log10 CFU/g; in assay [6] (range over 25 ~ 400 μg/gland intramammary), 0.77–8.34 Log10 CFU/g. The “bacterial loads in mammary tissues” value in assay [5] (400 μg/gland intramammary) is listed as “eliminated”. In addition, the MPC is 3.68 µM in assay [7], 1.47 µM in assay [8] and 1.18 µM in assay [9].
